Data set [1] can be described thus: Cyclic voltammetry in CH2Cl2/[N^nBu4]PF6. The data set is classed as physicochemical. Particulars: CH2Cl2/[N^nBu4]PF6 0.2 M. The method, then: Cyclic voltammetry measurements were conducted by using a PalmSens4 instrument connected to a computer operating with the PSTrace5 electrochemical software. Prior to use, anhydrous CH2Cl2 (Merck) was stored under argon over 3 Å molecular sieves. Both [N^nBu4]PF6 (electrochemical grade) and FeCp2, obtained from Fluka, were utilized without requiring additional purification. Cyclic voltammetries were carried out under argon by utilizing a 0.2 M solution of [N^nBu4]PF6 in CH2Cl2 as the supporting electrolyte. The working electrode and the counter electrode were comprised of a platinum disk and a platinum gauze, respectively, both enclosed within a glass tube. A leakage-free miniature electrode of Ag/AgCl/KCl (from eDAQ) was employed as a reference. The three-electrode designed cell was subjected to predrying via vacuum heating and then filled with argon gas. The Schlenk-type design of the cell was effective in upholding both anhydrous and anaerobic conditions. Subsequently, a solution of supporting electrolyte, prepared under argon, was introduced into the cell, and the CV of the solvent was acquired. Afterward, the analyte was introduced, and voltammograms were recorded. Under the selected experimental conditions, the one-electron oxidation of ferrocene occurred at a standard potential of E° = +0.45 V relative to Ag/AgCl/KCl.

A short description of data set [2]: Octanol/water partition coefficient, shake-flask with UV–vis. In kind it is physicochemical. Particulars: 21 °C. The method, then:
Partition coefficients (Pow), defined by the formula Pow = corg/caq, wherein corg and caq denote the molar concentrations of the specific compound in octanol and aqueous phases, respectively, were obtained using the shake-flask method with UV–vis measurements, following a previously described procedure (Table 3).[98] All the operations were carried out at 21 ± 1 °C. The wavelength corresponding to the maximum absorption of each compound within the range 350–430 nm was employed for quantifying using UV–vis techniques.

The nature of data set [3]: Stability in H2O/CH3OH solution (UV–vis). In kind it is physicochemical. To be noted: ca. 5:1 v/v. The method, then:
(§1) […] The percentage of remaining complex in the solution was calculated by considering the change in absorbance at the characteristic wavelength. The identical procedure was employed to evaluate stability in MeOH and DMEM (about 1:5 v/v) solutions. DMEM stands for the cell culture medium (containing 1000 mg/L glucose and L-glutamine, excluding sodium bicarbonate and phenol red; reference D2902-Merck).

Data set [4] concerns HOS human osteosarcoma cell line. Description: MTT in vitro cytotoxicity, HOS. The data set is classed as cell-based. Particulars: incubation 24 h, mean ± SD. The method, then:
(§2) The cytotoxicity assessment was conducted on various human cancer cell lines, including A2780 ovarian carcinoma, A2780R cisplatin-resistant ovarian carcinoma, MCF-7 breast, HOS osteosarcoma, A549 epithelial lung, PANC-1 pancreatic, Caco-2 colorectal, PC-3 prostate adenocarcinoma, and HeLa cervical cell lines. Additionally, the assessment extended to a normal human fetal fibroblast cell line (MRC-5). Cells were obtained from ATCC collection and cultivated according to the producer’s instructions. Stock solutions of the compounds were prepared in DMF immediately before application, and diluted with H2O to achieve the final concentration of 0.1% v/v DMF.[99] The culture media were enriched with 10% fetal calf serum. Subsequently, the cells were exposed to the tested compounds, vehicle (0.1% v/v DMF) and Triton X-100 (1% v/v), during incubation. The conventional MTT assay was carried out following different incubation periods (Tables 5-6). The absorbance was measured at 570 nm by using a spectrophotometer (Infinite M200, Schoeller Instruments, Prague, Czech Republic). The obtained data are presented as the percentage of cell viability with 100% representing negative control treatment (0.1% v/v DMF) and 0% representing the positive control (Triton X-100). The half-maximal inhibitory concentrations (IC50) were determined from dose–response curves using GraphPad Prism 6 software (GraphPad Software, San Diego, USA).

The test system of data set [5] is MRC-5 normal human lung fibroblast cell line. Description: MTT in vitro cytotoxicity, MRC-5 (selectivity). The data set is classed as cell-based. To be noted: normal cells, MTT, incubation 24 h, mean ± SD. The method, then:
as §2

Data set [6] deals with PANC-1 human pancreatic carcinoma cell line. Description: MTT in vitro cytotoxicity, PANC-1. Particulars: for IC50: incubation 24 h, mean ± SD. The data set is classed as cell-based. The method, then: as §2
Data set [7] relates to Caco-2 human colorectal adenocarcinoma cell line. Put plainly: MTT in vitro cytotoxicity, Caco-2. To be noted: for IC50: incubation 24 h, mean ± SD. The data set is classed as cell-based. The method, then: as §2, with “Additionally,” for “The cytotoxicity assessment was conducted on various human cancer cell lines, including A2780 ovarian carcinoma, A2780R cisplatin-resistant ovarian carcinoma, MCF-7 breast, HOS osteosarcoma, A549 epithelial lung, PANC-1 pancreatic, Caco-2 colorectal, PC-3 prostate adenocarcinoma, and HeLa cervical cell lines. Additionally,”

Data set [8] deals with HeLa human cervical carcinoma cell line. Put plainly: MTT in vitro cytotoxicity, HeLa. In kind it is cell-based. Particulars: incubation 24 h, mean ± SD. The method, then: as §2
The subject of data set [9] is A2780 human ovarian carcinoma cell line. Put plainly: MTT in vitro cytotoxicity, A2780. The data set is classed as cell-based. The method, then:
as §2

Data set [10] relates to A2780R cisplatin-resistant human ovarian carcinoma cell line. Description: MTT in vitro cytotoxicity, A2780R. The data set is classed as cell-based. Particulars: incubation 24 h, mean ± SD. The method, then:
as §2

Data set [11] is described as follows: Stability in DMEM/CH3OH solution (UV–vis). The data set is classed as physicochemical. Particulars: ca. 5:1 v/v. The method, then: as §1
The subject of data set [12] is A549 human lung adenocarcinoma cell line. Description: MTT in vitro cytotoxicity, A549. In kind it is cell-based. To be noted: for IC50: incubation 24 h, mean ± SD. The method, then:
as §2

The subject of data set [13] is MCF-7 breast adenocarcinoma cell line. Description: MTT in vitro cytotoxicity, MCF-7. In kind it is cell-based, human. To be noted: incubation 24 h, mean ± SD. The method, then: as §2
In data set [14] the test system is PC-3 human prostate carcinoma cell line. Description: MTT in vitro cytotoxicity, PC-3. The data set is classed as cell-based. Particulars: incubation 24 h, mean ± SD. The method, then:
as §2

The mark [15] stands for this setting: vs Ag/AgCl/KCl, peak potential of irreversible process.
[16] abbreviates: MTT, incubation 24 h, mean ± SD (Table 5), read-out: IC50 A2780.
Where [17] appears, read: time-course experiment (Table 6), 24 h, mean ± SD, read-out: IC50 A2780, incubation time 24 h.
Where [18] appears, read: time-course experiment (Table 6), 48 h, mean ± SD, read-out: IC50 A2780, incubation time 48 h.
Where [19] appears, read: time-course experiment (Table 6), 72 h, mean ± SD, read-out: IC50 A2780, incubation time 72 h.

Like-named read-outs stand apart in the source and are kept apart here.

For `O=[C]=[Ru]12([CH]3C=CC=C3)[CH]=C(C3(O)CCCC3)[C](=O)[Ru]1([CH]1C=CC=C1)[C]2=O` (stereo not shown) [2a, [Ru2Cp2(CO)2{μ–η^1:η^3-CH=C(1-cyclopentanol)C(=O)}]], the entries for the “Formal electrode potential, oxidation” value in data set [1] (setting [15]) and in [1] (vs FeCp2 (in parentheses)) were “+0.55 V” and “+0.11 V”, respectively. Further, the “Formal electrode potential, reduction” value is listed as “–1.82 V” in [1] (setting [15]) and −2.26 V in [1] (vs FeCp2 (in parentheses)). Also, the “Log Pow” value in data set [2] is reported as more than 1.5. Also, the “residual complex % in H2O/CH3OH” value in [3] (30 min) came to 97%; in data set [3] (2 h) it was 91%; in data set [3] (18 h), 23%.

As to `CC12CCC3C(CCC4=CC(=O)CCC43C)C1CCC2=C=[CH][Ru]1(=[C]=O)([CH]2C=CC=C2)[C](=O)[Ru+]1(=[C]=O)[CH]1C=CC=C1.F[B-](F)(F)F` (mixture of isomers) [3c, [Ru2Cp2(CO)3{μ–η^1:η^2-CH=C=(testosteronylidene)}]BF4], the IC50 (commonly the concentration that gives 50% inhibition) stood at 17.7 ± 2.8 µM in [4]; 21.5 ± 4 µM in data set [5]; 30 ± 0.6 µM in data set [6]; 42.8 ± 0.8 µM in data set [7]; 16.3 ± 1.3 µM in [8]; 6.3 ± 1.3 µM in data set [9] (setting [16]). Also, the IC50 was 4.7 ± 1 µM in [9] (setting [17]); 5.1 ± 0.7 µM in data set [9] (setting [18]); 6.8 ± 1.3 µM in data set [9] (setting [19]); 11.7 ± 2.4 µM in [10]; 20.7 ± 1.4 µM in [12]; 22 ± 4 µM in data set [13]. Also, in data set [14], the IC50 is 19.6 ± 3.7 µM. The “Log Pow” value in [2] is listed as 0.89 ± 0.12. In addition, the “residual complex % in DMEM/CH3OH” value in [11] (2 h) is on record as 89%; in data set [11] (18 h), 67%. For the same compound, the “residual complex % in H2O/CH3OH” value is 94% in [3] (2 h) and 73% in data set [3] (18 h).

Consider `Cc1ccc(C(C)C)cc1.[Cl][Ru]([Cl])[PH]12CN3CN(CN(C3)C1)C2` [RAPTA-C, [Ru(η^6-p-cymene)Cl2(pta)], reference compound], for which the IC50 in [4], in data set [5], in [6], in [7], in data set [8] and in data set [9] (setting [16]) was more than 50 µM in each case. Besides, the IC50 in [9] (setting [17]), in data set [9] (setting [18]), in data set [9] (setting [19]), in [10], in data set [12] and in data set [13] was more than 50 µM each time. Besides, in data set [14], the IC50 was more than 50 µM.

Consider “[Ru2Cp2(CO)2{μ–η^1:η^3-CH=C(17α-estradiol)C(=O)}] [2b]”, for which the IC50 in data set [4] was 24 ± 3.8 µM; in data set [5], more than 50 µM; in data set [6] it was more than 50 µM; in data set [7], more than 50 µM; in data set [8] it was 5.5 ± 0.9 µM; in data set [9] (setting [16]), 6.2 ± 1.2 µM. For the same compound, the IC50 in data set [9] (setting [17]) is 5.8 ± 0.4 µM; in [9] (setting [18]), 4.7 ± 0.8 µM; in data set [9] (setting [19]), 4.2 ± 0.6 µM; in [10], 7.3 ± 2.4 µM; in [12], more than 50 µM; in data set [13] it was 19 ± 4.5 µM. In addition, the IC50 in data set [14] was determined as 36 ± 4.1 µM. The “Log Pow” value in data set [2] is on record as more than 1.5. In addition, the “activity toward PANC-1 cells (in words)” value in data set [6] (24 h) is “inactive”. The “activity toward Caco-2 cells (in words)” value in data set [7] (24 h) was “inactive”. For the same compound, the “residual complex % in DMEM/CH3OH” value in data set [11] (2 h) is 50%; in data set [11] (18 h), 21%. Also, in [12] (24 h), the “activity toward A549 cells (in words)” value is “inactive”. The “residual complex % in H2O/CH3OH” value in [3] (30 min) is 69%; in data set [3] (18 h), 0%.

For the compound `CC12CCC(=O)C=C1CCC1C2CCC2(C)C1CCC2(O)C1=[CH][Ru]2(=[C]=O)([CH]3C=CC=C3)[C](=O)[Ru]2([CH]2C=CC=C2)[C]1=O` (stereo not shown) [2c, [Ru2Cp2(CO)2{μ–η^1:η^3-CHC(17-testosterone)C(O)}]], in [2], the “Log Pow” value is recorded as more than 1.5. The “residual complex % in H2O/CH3OH” value in data set [3] (30 min) was found to be 99%; in data set [3] (2 h) it was 81%; in data set [3] (18 h) it was 14%.

The values are drawn from publication PMC10548421, “Anticancer Potential of Diruthenium Complexes with Bridging Hydrocarbyl Ligands from Bioactive Alkynols” (Inorganic Chemistry, 2023).
